Data set [1] in a line: Microsome metabolism - dog. It counts as in vitro ADME.
In another data set the test system is VEGF mRNA UTRs reporter. Briefly: UTR-selectivity luciferase reporter cell lines (VEGF vs HIF-1α, DPPIV UTRs). The class given is cell-based, human. To be noted: HEK 293 luciferase reporter stable cell lines. From the text: Selective inhibition by PTC-510 of reporter gene expression mediated by VEGF mRNA UTRs. All luciferase reporter stable cell lines used in this study were generated from HEK 293 cells transfected with the luciferase reporter gene flanked with the UTRs derived from each target gene. HIF-1α: hypoxia Inducible Factor 1 alpha; DPPIV: dipeptidyl peptidase IV. (DOC) Click here for additional data file.
[picture] Selective inhibition by PTC-510 of reporter gene expression mediated by VEGF mRNA UTRs. All luciferase reporter stable cell lines used in this study were generated from HEK 293 cells transfected with the luciferase reporter gene flanked with the UTRs derived from each target gene. HIF-1α: hypoxia Inducible Factor 1 alpha; DPPIV: dipeptidyl peptidase IV.

Data set [2] in a line: Microsome metabolism - murine. It counts as in vitro ADME, mouse. The protocol:
(§1) Pharmacological characterization of PTC-510. Pharmacological assays were performed to characterize PTC-510, including metabolic stability in human, primate mouse and rat liver microsomes; absorption in Caco-2 cells; in vitro effect on hERG ion channel; pharmacokinetics; and acute toxicity in the rat.

Data set [3] in a line: Acute Toxicity Dose (ATD). The class given is in vivo. How it is done: as §1
A further data set addresses hERG ion channel (Homo sapiens, UniProt Q12809). The class given is biochemical. How it is done:
as §1

The next data set is described as follows: in vitro. To be noted: human, Caco-2. The class given is in vitro ADME. The protocol:
as §1

A further data set has as its target Cyp3A4 (Homo sapiens, UniProt P08684). Nature of the data set: p450 inhibition Cyp3A4. The class given is in vitro ADME.
The test system of data set [4] is A375 human melanoma cells. Nature of the data set: Chick embryo tumor growth study. As to conditions: A375 on CAM, single intravenous injection 500 μg per embryo, excised 6 days after dose. The class given is in vivo. How it is done: The chick embryo tumor growth assay was performed as described previously with some modifications. A375 human melanoma cells (5 x 10^6) log-phase growth in a total volume of 40 μL RPMI1640 medium were inoculated into the CAM of 10-day old chick embryos. After 24 h, the embryo received a single intravenous injection of 100 μL of compound (500 μg per embryo) or vehicle control (5% Cremaphor and 5% ethanol in PBS). The embryos were incubated for another 6 days, at which time the embryos were sacrificed. Tumors that formed at the primary site were excised, trimmed free of surrounding CAM tissue, and weighed.
To test the hypothesis that targeting VEGF post-transcriptionally can be a useful approach for the treatment of cancers, we initially evaluated the efficacy of the compounds in a chick embryo tumor growth model, known to be angiogenesis-dependent. Briefly, A375 human melanoma cells were seeded on the chorioallantoic membrane (CAM) of 10 day old chick embryos and, after 24 h, the embryo received a single intravenous injection of 100 μL of compound (500 μg per embryo) or vehicle control (5% Cremaphor and 5% ethanol in PBS). Tumors were grown for seven days, excised, and their wet weights were determined.
A375 human melanoma cells (5 x 10^6) were inoculated into the CAM of 10-days-old chick embryos. […]

A further data set concerns mVEGF. Nature of the data set: HT1080 xenograft pharmacodynamic model, intratumor mVEGF. It counts as in vivo, mouse. To be noted: 200 mg/kg, twice per day for 7 days, oral, mean +/- SD, n = 10. How it is done:
(§2) Log phase growing tumor cells (5–10 x 10^6 cells/mouse, depending on the cell line) were implanted subcutaneously in athymic nude mice. When the average tumor size reached the indicated size, mice were randomly divided into groups and administered vehicle (5% DMSO/ 95% PEG-300) or test compounds by oral gavage. Tumor volumes were measured twice per week using digital calipers and body weights once per week. Tumor volume was determined according to the formula: L x (W)^2/2, where L is the longest dimension and W is the shortest dimension.
(§3) At the end of experiments, the tumors were excised from mice and homogenized on ice using a Powergen homogenizer fitted with Omni-Tip disposable/reusable probes (both from Fisher Scientific) in Tris-HCl buffer containing a cocktail of proteinase inhibitors. Intra-tumor human VEGF levels, as well as levels of other growth factors or proteins, were subsequently measured using commercially available ELISA kits (R&D Systems). Protein concentrations of the homogenates were determined using the Bradford protein assay (Bio-Rad) and intratumor growth factor levels were normalized to the total protein concentration.
(§4) Among the VEGF UTR-selective compounds identified, PTC-858 is a potent hit with adequate pharmaceutical properties (data not shown). […]

The test system of another data set is hSurvivin. Nature of the data set: HT1080 xenograft pharmacodynamic model, intratumor hSurvivin. The class given is in vivo, human. As to conditions: 200 mg/kg, twice per day for 7 days, oral, mean +/- SD, n = 10. How it is done: as §2, §3, §4
(In general: A xenograft is tissue or cells of one species grown in another, often human tumour cells in immunodeficient mice.)

Data set [5] can be described thus: Cytotoxicity, CellTiter-Glo, foreskin fibroblasts. It counts as cell-based. As to conditions: human, primary foreskin fibroblasts, read-out: Cytotoxicity CC50, Foreskin Fibroblast. The protocol: The cytotoxicity of compounds was determined in peripheral blood mononuclear cells (PBMCs) and primary human foreskin fibroblasts, both purchased frozen from AllCells, Inc, CA. Cells were incubated with test compound at various concentrations in triplicate for a period of 3 days in 96-well plates. The cytotoxicity or inhibition of cell proliferation was determined using a standard CellTiter-Glo® Luminescent Cell Viability Assay (Promega, Madison, WI) that measures total cellular adenosine triphosphate (ATP) concentration as a function of cell viability. In addition, cytotoxicity assays were also performed in HeLa cells in parallel with VEGF ELISA to ensure that the inhibition of VEGF production in HeLa cells was not due to cytotoxicity.
On the technique in general: ATP-based viability assays read luminescence as a measure of living cells.

The term Papp denotes the rate of passage across a membrane or cell layer, normalised by area and donor concentration. One may read the IC50 as the midpoint of a concentration-inhibition curve. A high value points to a need for much substance. Broadly, the CC50 is the concentration that lowers cell viability or growth by half.

Sequence of hERG ion channel (Q12809 whole entry): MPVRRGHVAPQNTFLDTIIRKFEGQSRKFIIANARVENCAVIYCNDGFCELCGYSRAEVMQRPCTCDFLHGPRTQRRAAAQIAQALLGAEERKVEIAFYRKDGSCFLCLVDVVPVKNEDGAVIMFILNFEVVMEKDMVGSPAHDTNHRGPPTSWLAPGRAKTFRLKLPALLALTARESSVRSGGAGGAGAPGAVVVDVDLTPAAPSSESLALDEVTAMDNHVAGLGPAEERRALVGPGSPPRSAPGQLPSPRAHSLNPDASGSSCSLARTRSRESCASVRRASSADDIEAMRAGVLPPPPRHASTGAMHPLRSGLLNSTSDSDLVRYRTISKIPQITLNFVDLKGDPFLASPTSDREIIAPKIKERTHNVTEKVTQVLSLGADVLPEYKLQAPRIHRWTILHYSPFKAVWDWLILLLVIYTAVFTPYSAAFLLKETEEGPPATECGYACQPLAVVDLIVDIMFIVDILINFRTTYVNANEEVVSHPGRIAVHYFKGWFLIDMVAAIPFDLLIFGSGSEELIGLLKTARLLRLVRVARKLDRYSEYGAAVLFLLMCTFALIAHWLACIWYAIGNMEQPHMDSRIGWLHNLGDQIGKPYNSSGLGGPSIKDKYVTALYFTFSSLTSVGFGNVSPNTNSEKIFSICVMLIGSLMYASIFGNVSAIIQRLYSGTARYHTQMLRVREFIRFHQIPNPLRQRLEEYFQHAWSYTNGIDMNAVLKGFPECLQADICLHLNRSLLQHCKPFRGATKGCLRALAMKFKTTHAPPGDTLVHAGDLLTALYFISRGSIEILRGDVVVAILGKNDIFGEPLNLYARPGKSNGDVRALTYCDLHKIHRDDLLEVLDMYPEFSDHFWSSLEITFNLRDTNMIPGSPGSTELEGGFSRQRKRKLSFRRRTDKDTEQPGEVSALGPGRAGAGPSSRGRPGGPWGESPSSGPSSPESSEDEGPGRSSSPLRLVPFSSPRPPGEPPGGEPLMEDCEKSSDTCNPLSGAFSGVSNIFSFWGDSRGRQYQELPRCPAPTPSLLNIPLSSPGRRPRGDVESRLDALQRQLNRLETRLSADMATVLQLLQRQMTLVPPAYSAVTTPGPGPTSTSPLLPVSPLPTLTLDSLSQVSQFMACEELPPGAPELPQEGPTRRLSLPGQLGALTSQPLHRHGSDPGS
Sequence of Cyp3A4 (P08684 whole entry): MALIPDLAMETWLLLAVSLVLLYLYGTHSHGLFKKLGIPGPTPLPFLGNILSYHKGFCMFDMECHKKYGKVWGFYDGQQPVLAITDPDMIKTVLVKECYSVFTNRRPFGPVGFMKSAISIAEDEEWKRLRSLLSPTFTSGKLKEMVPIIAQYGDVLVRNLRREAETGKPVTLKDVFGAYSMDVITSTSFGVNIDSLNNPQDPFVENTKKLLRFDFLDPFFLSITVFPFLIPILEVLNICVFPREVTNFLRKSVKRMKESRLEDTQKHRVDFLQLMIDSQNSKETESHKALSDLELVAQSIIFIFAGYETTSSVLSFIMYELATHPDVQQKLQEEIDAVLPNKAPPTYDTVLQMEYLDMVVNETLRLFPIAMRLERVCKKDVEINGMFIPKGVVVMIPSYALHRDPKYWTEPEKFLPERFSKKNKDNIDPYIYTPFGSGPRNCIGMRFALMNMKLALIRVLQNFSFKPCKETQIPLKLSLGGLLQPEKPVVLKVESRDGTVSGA

On to `COc1ccc(C2c3[nH]c4ccc(Br)cc4c3CC3C(=O)N(C4CCCCC4)C(=S)N32)cc1.O=C(O)C(F)(F)F` (centres unmarked) [PTC-510, 9-bromo-2-cyclohexyl-5-(4-methoxyphenyl)-3-thioxo-2,3,5,6,11,11a-hexahydro-1H-imidazo[1’,5’:1,6]pyrido[3,4-b]indol-1-one trifluoroacetate], for which the “Microsome metabolism - dog, % loss @ 1 h” value in data set [1] turned out to be 0%. Further, in the data set on VEGF mRNA UTRs reporter, the “VEGF UTR selectivity compared to UTRs of HIF-1α and DPPIV” value is reported as “VEGF UTR selective”. Also, in data set [2], the “Microsome metabolism - murine, % loss @ 1 h” value stood at 0%. Also, the “Acute Toxicity Dose (ATD) in mouse” value in [3] is “No overt toxicity at 1000 mg/kg”. Moreover, the “HERG % inhibition @ 10 µM” value on hERG ion channel was determined as 2%. The compound further displayed a Papp in the data set “in vitro” of 1 ×10⁻⁶ cm/s. Besides, the IC50 against Cyp3A4 was 3.7 µM.
Consider `Brc1ccc2[nH]c3c(c2c1)CCCC3n1cccc1` (centres unmarked) [PTC-858, 6-bromo-1-(1H-pyrrol-1-yl)-2,3,4,9-tetrahydro-1H-carbazole], for which the “tumor size (wet weight) vs no-treatment or vehicle controls” value in data set [4] was “significantly reduced tumor size”. Moreover, the “intratumor mVEGF” value in the data set with mVEGF is recorded as 12.6 ± 5.9 pg/mg total tumor proteins. The “intratumor hSurvivin” value in the data set with hSurvivin is recorded as 1815.43 ± 321.9 pg/mg total tumor proteins. Moreover, the CC50 at 72 hours in data set [5] was > 30 µM.

Values taken from PMC5161367, “Discovery of Novel Small Molecule Inhibitors of VEGF Expression in Tumor Cells Using a Cell-Based High Throughput Screening Platform” (PLoS ONE, 2016).
